Assay results from patent US20250381412A1, “METHODS AND SYSTEMS FOR NEUROMODULATION” (Cardionomix, Inc., priority 2022, published 2025).

Tested on: normal, non-HF ovine model
Test: Heartbeat-by-heartbeat changes in right and left ventricle contractility (max dP/dt as surrogate) after an injection
Assay type: in vivo
Conditions: pressure max (dP/dt) used as surrogate for contractility, after injection (calcium: 5 mL)
Text: The correlation was a heartbeat-by-heartbeat analysis. Pressure measurements, taken by a Millar catheter comprising a MEMS pressure sensor, in units of max (dP/dt) was used as a surrogate for contractility.
The first change, a dobutamine injection, provided a very high contractility increase greater than 500%. The average correlation between right ventricle contractility and left ventricle contractility was very good at 0.91, where 1.00 is a perfect correlation. Accordingly, if a subject is given a dobutamine injection, measuring changes to right ventricle contractility can provide accurate information about changes to left ventricle contractility. The first change was repeated three times.
The second change, calcium injection at 5 mL, provided a contractility increase of about 20%. […] The average correlation between right […] contractility and left ventricle contractility using a Millar (MEMS) sensor on a catheter was very good at 0.91. The average correlation between right ventricle contractility and left ventricle contractility using a fluid-filled lumen of a Swan-Ganz catheter in communication with an external pressure sensor was also very good at 0.87. Accordingly, under certain circumstances such as measurement of an animal (normal, non-HF ovine model) model, if a subject is given a calcium injection, measuring changes to right ventricle contractility with a MEMS sensor or a fluid filled lumen can provide accurate information about changes to left ventricle contractility.

SMILES	Contractility % Increase [%]	Contractility % Increase (listed as calcium)	Contractility % Increase (listed as dobutamine)
[Ca+2] [Calcium, calcium]	~20	about 20%	
CC(CCc1ccc(O)cc1)NCCc1ccc(O)c(O)c1 (stereo not shown) [Dobutamine Injection, dobutamine]	>500		greater than 500%
